Counter-ions that a name gives are not always drawn.
How the values were obtained:
human 5HT1A receptors = molecular target: T1, human 5HT1A receptors (Homo sapiens, UniProt P08908); test: [3H] 8-OH-DPAT displacement from 5HT1A receptor in stably transfected CHO cells; type: binding; conditions: CHO cells with human 5HT1A; for Ki: read-out: 5HT1A Receptor Affinity Ki
T1 construct: expressed in transfected cells; host or cells: CHO cells
T1 sequence (P08908 1-422): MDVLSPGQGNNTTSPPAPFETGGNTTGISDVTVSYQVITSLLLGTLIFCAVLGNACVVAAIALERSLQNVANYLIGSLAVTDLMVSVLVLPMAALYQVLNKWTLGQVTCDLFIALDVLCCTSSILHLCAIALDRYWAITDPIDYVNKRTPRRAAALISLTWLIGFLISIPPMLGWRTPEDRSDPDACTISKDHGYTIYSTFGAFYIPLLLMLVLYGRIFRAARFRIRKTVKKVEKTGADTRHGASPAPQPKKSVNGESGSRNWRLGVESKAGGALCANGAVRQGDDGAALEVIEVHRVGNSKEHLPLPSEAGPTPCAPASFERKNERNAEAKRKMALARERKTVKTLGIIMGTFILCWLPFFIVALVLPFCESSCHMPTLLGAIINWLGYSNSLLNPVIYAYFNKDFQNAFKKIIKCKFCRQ
Source text: High affinity for the serotonin 5HT1A receptor was established by testing the claimed compound's ability to displace [^3H] 8-OH-DPAT (dipropylamino-tetralin) from the 5HT1A serotonin receptor following a modification of the procedure of Hall et al., J. Neurochem. 44, 1685 (1985) which utilizes CHO cells stably transfected with human 5HT1A receptors.

[1] = molecular target: T2, cloned human 5HT1A receptors (Homo sapiens, UniProt P08908); test: 35S-GTPγS binding assay, 5HT1A antagonist activity; type: biochemical; conditions: for 5HT1A Function Imax: maximum inhibitory effect, vs 8-OH-DPAT, unit assumed; for IC50: reversal of 8-OH-DPAT (antagonist), read-out: 5HT1A Function IC50; for 5HT1A Function Emax / EC50: increase in binding (agonist); for EC50: read-out: 5HT1A Function EC50
T2 construct: expressed in transfected cells
T2 sequence (P08908 1-422): T1 sequence (P08908 1-422)
Description: Antagonist activity at 5HT1A receptors was established by using a ^35S-GTPγS binding assay similar to that used by Lazareno and Birdsall (Br. J. Pharmacol. 109:1120, 1993), in which the test compound's ability to affect the binding of ^35S-GTPγS to membranes containing cloned human 5HT1A receptors was determined. Agonists produce an increase in binding whereas antagonists produce no increase but rather reverse the effects of the standard agonist 8-OH-DPAT. The test compound's maximum inhibitory effect is represented as the Imax, while its potency is defined by the IC50.

serotonin transporter = molecular target: T3, serotonin transporter (Rattus norvegicus, UniProt P31652); test: 3H-paroxetine displacement from rat frontal cortical membranes (serotonin transporter affinity); type: binding; conditions: for Ki: 3H-paroxetine, male rat frontal cortical membranes, read-out: 5-HT Transporter Affinity Ki
T3 construct: displace ^3H-paroxetine from male rat frontal cortical membranes; from tissue; host or cells: male rat frontal cortical membranes
T3 sequence (P31652 whole entry): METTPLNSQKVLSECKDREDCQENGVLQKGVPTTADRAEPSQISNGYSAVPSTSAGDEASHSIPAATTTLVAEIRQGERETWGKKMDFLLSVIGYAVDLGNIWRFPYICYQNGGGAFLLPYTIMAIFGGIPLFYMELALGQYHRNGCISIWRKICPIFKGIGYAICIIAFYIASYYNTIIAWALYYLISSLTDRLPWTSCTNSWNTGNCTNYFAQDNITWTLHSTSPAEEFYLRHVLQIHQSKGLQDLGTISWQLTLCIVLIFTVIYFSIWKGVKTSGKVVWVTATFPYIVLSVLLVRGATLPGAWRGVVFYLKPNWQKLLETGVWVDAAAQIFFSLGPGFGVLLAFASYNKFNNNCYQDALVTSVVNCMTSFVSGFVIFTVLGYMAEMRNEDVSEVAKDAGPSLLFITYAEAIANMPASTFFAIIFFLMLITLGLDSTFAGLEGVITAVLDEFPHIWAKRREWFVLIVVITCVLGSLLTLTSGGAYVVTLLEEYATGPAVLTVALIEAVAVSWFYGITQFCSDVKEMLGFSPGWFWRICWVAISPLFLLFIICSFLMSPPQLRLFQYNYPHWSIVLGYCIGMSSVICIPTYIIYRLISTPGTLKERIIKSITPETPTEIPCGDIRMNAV

| Compound | melting point | Ki (human 5HT1A receptors) [nM] | 5HT1A Function Imax [1] [%] | IC50 [1] [nM] | Ki (serotonin transporter) [nM] | further results |
| --- | --- | --- | --- | --- | --- | --- |
| Cc1ccc2c3c(ccc2n1)OC[C@H](CN1CCN(c2cccc4c2OCCO4)CC1)O3 (as salt: fumarate) [Example 7, (2S)-2-{[4-(dihydrobenzo[1,4]dioxin-5-yl)piperazin-1-yl]methyl}-8-methyl-2,3-dihydro[1,4]dioxino[2,3-f]quinoline] | 154 to 155 °C |  |  |  |  |  |
| Cc1ccc2c3c(ccc2n1)OC[C@H](CN1CCN(c2ccc4ccccc4n2)CC1)O3 (as salt: hydrochloride) [Example 12, (2S)-8-methyl-2-[(4-quinolin-2-ylpiprazin-1-yl)methyl]-2,3-dihydro[1,4]dioxino[2,3-f]quinoline] | 237 to 243 °C |  |  |  |  |  |
| Cc1ccc2c3c(ccc2n1)OC[C@H](CN1CCN(c2ccc4cc([N+](=O)[O-])ccc4n2)CC1)O3 (as salt: salt) [Example 13] | 200 °C (dec.) |  |  |  |  |  |
| Cc1ccc2c3c(ccc2n1)OC[C@H](CN1CCN(c2cccc4c2OCCO4)CC1)O3 [Example 7, (2S)-2-{[4-(dihydrobenzo[1,4]dioxin-5-yl)piperazin-1-yl]methyl}-8-methyl-2,3-dihydro[1,4]dioxino[2,3-f]quinoline] |  |  |  | 557 | 1.2 | 5HT1A Receptor Affinity, % @ 1 μM (human 5HT1A receptors; @ 1 μM): 91% @ 1 μM |
| Cc1ccc2c3c(ccc2n1)OC[C@H](CN1CCN(c2ccc4ccccc4n2)CC1)O3 [Example 12, (2S)-8-methyl-2-[(4-quinolin-2-ylpiprazin-1-yl)methyl]-2,3-dihydro[1,4]dioxino[2,3-f]quinoline] |  | 47.3 | 100 | 3000 | 48 |  |
| Cc1ccc2c3c(ccc2n1)OC[C@H](CN1CCN(c2ccc4cc([N+](=O)[O-])ccc4n2)CC1)O3 [Example 13] |  | 20 | 70 | 326 | 0.25 |  |
| Cc1ccc2c3c(ccc2n1)OC[C@H](CN1CCN(c2ccc4cc(Cl)ccc4n2)CC1)O3 [Example 14] |  | 214 | 58 | 74.7 | 0.65 |  |
| Cc1ccc2c3c(ccc2n1)OC[C@H](CN1CCN(c2coc4ccc(F)cc24)CC1)O3 [Example 17, (2S)-2-{[4-(5-fluoro-1-benzofuran-3-yl)-1-piperazinyl]methyl}-8-methyl-2,3-dihydro[1,4]dioxino[2,3-f]quinoline] |  | 718 |  |  | 74 |  |
| Cc1ccc2c3c(ccc2n1)OC[C@H](CN1CCN(c2coc4ccccc24)CC1)O3 [Example 18, (2S)-2-{[4-(1-benzofuran-3-yl)-1-piperazinyl]methyl}-8-methyl-2,3-dihydro[1,4]dioxino[2,3-f]quinoline] |  | 40.3 |  |  | 16 |  |
| Cc1ccc2c3c(ccc2n1)OC[C@H](CN1CCN(c2ccc4cc(C#N)ccc4n2)C[C@H]1C)O3 [Example 20] |  | 2.85 | 92 | 82.8 | 688 |  |
| Cc1ccc2c3c(ccc2n1)OC[C@H](CN1CCN(c2ccc4cc(C(N)=O)ccc4n2)CC1)O3 [Example 23] |  | 7.21 | 71 | 129 |  | 5-HT Transporter Affinity, % @ 1 μM (serotonin transporter): 56% @ 1 μM |
| Cc1ccc2c3c(ccc2n1)OC[C@H](CN1CCNCC1)O3 [Example 29, 8-Methyl-2-piperazin-1-ylmethyl-2,3-dihydro-[1,4]dioxino[2,3-f]quinoline] |  | 1.26 | 100 | 1320 | 200 |  |
| Cc1ccc2c3c(ccc2n1)OC[C@H](CN1CCCN(c2ccc4cc(C#N)ccc4n2)CC1)O3 [Example 34, 2-(4-{[(2S)-8-Methyl-2,3-dihydro[1,4]dioxino[2,3-f]quinolin-2-yl]methyl}-1,4-diazepan-1-yl)quinoline-6-carbonitrile] | 80 to 85 °C | 2.04 |  |  | 1.09 |  |

Second part, led by results:

| melting point | Ki (human 5HT1A receptors) [nM] | 5HT1A Function Imax [1] [%] | IC50 [1] [nM] | Ki (serotonin transporter) [nM] | Compound | further results |
| --- | --- | --- | --- | --- | --- | --- |
| 140 to 144 °C |  |  |  |  | Cc1ccc2c3c(ccc2n1)OC[C@H](CN1CCN(c2ccc(Cl)c(Cl)c2)CC1)O3 (as salt: fumarate) [Example 3, (2S)-2-{[4-(3,4-dichlorophenyl)piperazin-1-yl]methyl}-8-methyl-2,3-dihydro[1,4]dioxine[2,3-f]quinoline] |  |
| 110 to 112 °C | 15.9 | 100 | 4560 | 15.7 | Cc1ccc2c3c(ccc2n1)OC[C@H](CN1CCN(c2cccc(Cl)c2)CC1)O3 [Example 1, (2S)-2-{[4-(3-chlorophenyl)piperazin-1-yl]methyl}-8-methyl-2,3-dihydro[1,4]dioxino[2,3-f]quinoline] |  |
|  | 22.9 | 26 | 632 | 565 | Cc1ccc2c3c(ccc2n1)OC[C@H](CN1CCN(c2ccc(Cl)cc2)CC1)O3 [Example 2, (2S)-2-{[4-(4-chlorophenyl)piperazin-1-yl]methyl}-8-methyl-2,3-dihydro[1,4]dioxino[2,3-f]quinoline] |  |
|  | 1050 |  |  | 76 | Cc1ccc2c3c(ccc2n1)OC[C@H](CN1CCN(c2ccc(Cl)c(Cl)c2)CC1)O3 [Example 3, (2S)-2-{[4-(3,4-dichlorophenyl)piperazin-1-yl]methyl}-8-methyl-2,3-dihydro[1,4]dioxine[2,3-f]quinoline] |  |
|  | 3.7 |  | 82.5 | 13.5 | Cc1ccc2c3c(ccc2n1)OC[C@H](CN1CCN(c2ccc4cc(C#N)ccc4n2)CC1)O3 [Example 15, 2-(4-{[(2S)-8-methyl-2,3-dihydro[1,4]dioxino[2,3-f]quinolin-2-yl]methyl}piperazin-1-yl}quinoline-6-carbonitrile] |  |
| 56 °C | 28.5 |  |  | 266 | COc1cccc2c(N3CCN(C[C@H]4COc5ccc6nc(C)ccc6c5O4)CC3)coc12 [Example 16, (2S)-2-{[4-(7-methoxy-1-benzofuran-3-yl)-1-piperazinyl]methyl}-8-methyl-2,3-dihydro[1,4]dioxino[2,3-f]quinoline] |  |
|  | 53.2 | 76 | 4540 | 19.8 | Cc1ccc2c3c(ccc2n1)OC[C@H](CN1CCN(c2ccc4ccccc4c2)CC1)O3 [Example 22, (2S)-8-methyl-2-{[4-(2-naphthyl)piperazin-1-yl]methyl}-2,3-dihydro[1,4]dioxino[2,3-f]quinoline] |  |
|  | 7.27 | 58 | 57 | 310 | N#Cc1ccc2nc(N3CCN(C[C@H]4COc5ccc6ncccc6c5O4)CC3)ccc2c1 [Example 24, (2S)-2-[4-(2,3-Dihydro-[1,4]dioxino[2,3-f]quinolin-2-ylmethyl)-piperazin-1-yl]-quinoline-6-carbonitrile] |  |
|  | 4.74 |  |  | 67 | CCc1ccc2c3c(ccc2n1)OC[C@H](CN1CCN(c2ccc4cc(C#N)ccc4n2)CC1)O3 [Example 25, (2S)-2-[4-(8-Ethyl-2,3-dihydro-[1,4]dioxino[2,3-f]quinolin-2-ylmethyl)-piperazin-1-yl]-quinoline-6-carbonitrile] | 5HT1A Function Emax [1]: 67; EC50 [1]: 1140 nM |
|  | 25.1 |  |  | 407 | Cc1nc2ccc3c(c2o1)O[C@@H](CN1CCN(c2ccc4cc(C#N)ccc4n2)CC1)CO3 [Example 26, (2S)-2-[4-(2-Methyl-7,8-dihydro-1,6,9-trioxa-3-aza-cyclopenta[a]naphthalen-8-ylmethyl)-piperazin-1-yl]-quinoline-6-carbonitrile] | 5HT1A Function Emax [1]: 64; EC50 [1]: 700 nM |
| 158 to 160 °C |  |  |  |  | COc1ccc2nc(N3CCN(C[C@H]4COc5ccc6nc(C)ccc6c5O4)CC3)ccc2c1 [Example 30, (2S)-2-{[4-(6-methoxyquinolin-2-yl)piperazin-1-yl]methyl]-8-methyl-2,3-dihydro[1,4]dioxino[2,3-f]quinoline] |  |
|  | 1.75 | 92 | 316 | 7.3 | COc1ccc2nc(N3CCCN(C[C@H]4COc5ccc6nc(C)ccc6c5O4)CC3)ccc2c1 [Example 33, (2S)-2-{[4-(6-methoxyquinolin-2-yl)-1,4-diazepan-1-yl]methyl]-8-methyl-2,3-dihydro[1,4]dioxino[2,3-f]quinoline] |  |
